One block for each molecule: values may come before it.
How the values were obtained:
[1] = Microsomal stability in rat liver microsomes assessed as half life; type: ADME, Microsome
[2] = Microsomal stability in human liver microsomes assessed as half life; type: ADME, Microsome
[3] = target: T1, Nuclear receptor ROR-gamma (Homo sapiens, UniProt P51449); experiment: Agonist activity at N-terminal GST tagged human RORgamma LBD using fluorescein-D22 as coactivator incubated for 60 mins by Lanthascreen TR-FRET assay
T1 sequence (P51449 whole entry): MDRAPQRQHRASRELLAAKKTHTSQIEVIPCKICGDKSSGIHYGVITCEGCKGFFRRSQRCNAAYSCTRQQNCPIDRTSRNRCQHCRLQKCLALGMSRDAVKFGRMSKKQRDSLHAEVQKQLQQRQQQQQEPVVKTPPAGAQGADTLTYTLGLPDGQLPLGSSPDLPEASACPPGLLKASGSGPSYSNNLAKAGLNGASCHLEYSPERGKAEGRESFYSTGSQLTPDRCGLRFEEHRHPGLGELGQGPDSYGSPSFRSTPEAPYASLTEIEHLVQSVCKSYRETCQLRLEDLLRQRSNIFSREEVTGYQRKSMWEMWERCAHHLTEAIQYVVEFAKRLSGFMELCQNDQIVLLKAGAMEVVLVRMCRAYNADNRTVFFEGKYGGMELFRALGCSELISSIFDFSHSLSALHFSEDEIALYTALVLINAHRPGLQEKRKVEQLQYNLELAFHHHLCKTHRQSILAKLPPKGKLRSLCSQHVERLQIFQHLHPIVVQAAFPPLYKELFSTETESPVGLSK

[4] = target: T1, Nuclear receptor ROR-gamma; experiment: Agonist activity at human RORgamma in cytostim stimulated human PBMC cells assessed as increase in differentiation of TH17 cells by measuring IL-17 production preincubated with cytostim for 72 hrs by ELISA; type: cell-based
[5] = Half life in dog at 2 mg/kg, po; type: ADME, organism-based, Canis lupus familiaris; conditions: in vivo
[6] = Drug exposure in tumor of C57BL/6 mouse injected with mouse MC38 cells at 10 mg/kg, po measured 3 hrs post dose on day 25 by LC/MS analysis; type: ADME, organism-based, Neoplasm, MC-38; conditions: time 25 day, read-out: Drug uptake
[7] = Clearance in dog at 0.5 mg/kg, iv; type: ADME, organism-based, Canis lupus familiaris; conditions: in vivo
[8] = Half life in mouse at 2 mg/kg, po; type: ADME, organism-based; conditions: in vivo
[9] = Cmax in mouse at 2 mg/kg, po; type: ADME, organism-based; design: dose 2 mg/kg, route po; conditions: in vivo
[10] = AUC (0 to t) in rat at 2 mg/kg, po; type: ADME, organism-based; design: dose 2 mg/kg, route po; conditions: in vivo
[11] = Half life in dog at 0.5 mg/kg, iv; type: ADME, organism-based, Canis lupus familiaris; conditions: in vivo
[12] = Effects of compound in IL-17 production in CD3/CD28-stimulated C57BL/6 mouse tumor lymphocytes assessed as increase in IL-17 production at 10 mg/kg by ELISA (Rvb= 19 +/- 5 pg/ml); type: functional, Lymphocyte
[13] = Volume of distribution in mouse at 2 mg/kg, po; type: ADME, organism-based; conditions: in vivo
[14] = AUC (0 to t) in mouse at 2 mg/kg, po; type: ADME, organism-based; design: dose 2 mg/kg, route po; conditions: in vivo
[15] = Volume of distribution in rat at 1 mg/kg, iv; type: ADME, organism-based; conditions: in vivo
[16] = Effects of compound in IFNgamma production in CD3/CD28-stimulated C57BL/6 mouse tumor lymphocytes assessed as increase in IFNgamma production at 10 mg/kg by ELISA (Rvb= 262 +/- 81 pg/ml); type: functional, Lymphocyte
[17] = Volume of distribution in dog at 2 mg/kg, po; type: ADME, organism-based, Canis lupus familiaris; conditions: in vivo
[18] = AUC (0 to t) in dog at 2 mg/kg, po; type: ADME, organism-based, Canis lupus familiaris; design: dose 2 mg/kg, route po; conditions: in vivo
[19] = Half life in rat at 1 mg/kg, iv; type: ADME, organism-based; conditions: in vivo
[20] = Effects of compound in IFNgamma production in CD3/CD28-stimulated C57BL/6 mouse tumor lymphocytes assessed as increase in IFNgamma production at 10 mg/kg in combination with anti-mouse PD1 monoclonal antibody at 5 mg/kg by ELISA (Rvb= 1467 +/- 878 pg/ml); type: functional, Lymphocyte
[21] = Cmax in rat at 2 mg/kg, po; type: ADME, organism-based; design: dose 2 mg/kg, route po; conditions: in vivo
MC-38 [22] = experiment: Antitumor activity against mouse MC38 cells injected C57BL/6 mouse syngenic model assessed as tumor growth inhibition at 10 mg/kg, po administered once daily for 25 days in combination with anti-mouse PD-1 monoclonal antibody at 5 mg/kg, ip relative to control; type: functional; conditions: C57BL/6, MC-38, 600 h, time 25 day, read-out: TGI
[23] = Half life in mouse at 1 mg/kg, iv; type: ADME, organism-based; conditions: in vivo, iv, 1 mg/kg
Mus musculus [24] = experiment: Toxicity in C57BL/6 mouse injected with mouse MC38 cells assessed as change in body weight at 10 mg/kg, po administered once daily for 25 days in combination with anti-mouse-PD1 monoclonal antibody at 5 mg/kg, ip and measured twice a week; type: organism-based, MC-38; conditions: in vivo, 600 h, time 25 day
[25] = Drug exposure in plasma of C57BL/6 mouse injected with mouse MC38 cells at 10 mg/kg, po measured 3 hrs post dose on day 25 by LC/MS analysis; type: ADME, organism-based, MC-38; conditions: time 25 day
[26] = Cmax in dog at 2 mg/kg, po; type: ADME, organism-based, Canis lupus familiaris; design: dose 2 mg/kg, route po; conditions: in vivo
Mus musculus [27] = experiment: Toxicity in C57BL/6 mouse infected with mouse MC38 cells assessed as change in body weight at 10 mg/kg, po administered once daily for 25 days and measured twice a week; type: organism-based, MC-38; conditions: in vivo, 600 h, time 25 day
[28] = AUC (0 to t) in mouse at 1 mg/kg, iv; type: ADME, organism-based; design: dose 1 mg/kg, route iv; conditions: in vivo
[29] = Volume of distribution in dog at 0.5 mg/kg, iv; type: ADME, organism-based, Canis lupus familiaris; conditions: in vivo
[30] = Oral bioavailability in mouse; type: ADME, organism-based; conditions: in vivo
[31] = AUC (0 to t) in rat at 1 mg/kg, iv; type: ADME, organism-based; design: dose 1 mg/kg, route iv; conditions: in vivo
[32] = Oral bioavailability in rat; type: ADME, organism-based; conditions: in vivo
[33] = AUC (0 to t) in dog at 0.5 mg/kg, iv; type: ADME, organism-based, Canis lupus familiaris; design: dose 0.5 mg/kg, route iv; conditions: in vivo
MC-38 [34] = experiment: Antitumor activity against mouse MC38 cells injected C57BL/6 mouse syngenic model assessed as tumor growth inhibition at 10 mg/kg, po administered once daily for 25 days relative to control; type: functional; conditions: C57BL/6, MC-38, 600 h, time 25 day, read-out: TGI
[35] = Oral bioavailability in dog; type: ADME, organism-based, Canis lupus familiaris; conditions: in vivo
[36] = Effects of compound in IL-17 production in CD3/CD28-stimulated C57BL/6 mouse tumor lymphocytes assessed as increase in IL-17 production at 10 mg/kg in combination with anti-mouse PD1 monoclonal antibody at 5 mg/kg by ELISA (Rvb= 29 +/- 9 pg/ml); type: functional, Lymphocyte
[37] = Drug exposure in tumor of C57BL/6 mouse injected with mouse MC38 cells at 10 mg/kg, po measured 3 hrs post dose on day 25 in combination with anti-mouse PD1 monoclonal antibody at 5 mg/kg, ip by LC/MS analysis; type: ADME, organism-based, Neoplasm, MC-38; conditions: time 25 day, read-out: Drug uptake
[38] = Half life in rat at 2 mg/kg, po; type: ADME, organism-based; conditions: in vivo
[39] = Volume of distribution in mouse at 1 mg/kg, iv; type: ADME, organism-based; conditions: in vivo, iv, 1 mg/kg
[40] = Volume of distribution in rat at 2 mg/kg, po; type: ADME, organism-based; conditions: in vivo
[41] = Clearance in rat at 1 mg/kg, iv; type: ADME, organism-based; conditions: in vivo
[42] = Drug exposure in plasma of C57BL/6 mouse injected with mouse MC38 cells at 10 mg/kg, po measured 3 hrs post dose on day 25 in combination with anti-mouse PD1 monoclonal antibody at 5 mg/kg, ip by LC/MS analysis; type: ADME, organism-based, MC-38; conditions: time 25 day
[43] = target: T1, Nuclear receptor ROR-gamma; experiment: Antagonist activity at N-terminal GST tagged human RORgamma LBD using fluorescein-D22 as coactivator incubated for 60 mins by Lanthascreen TR-FRET assay

half-life [1]: 116 min | half-life [2]: 182 min | EC50 [3]: 11 nM | EC50 [4]: 8 nM
SMILES: CCS(=O)(=O)c1ccc(CNC(=O)c2ccc3c(c2)cc(Cc2ccc(Cl)cc2C(F)(F)F)n3C(C)C)cc1

half-life [1]: 12 min | half-life [2]: 15 min
SMILES: CCS(=O)(=O)c1ccc(CNC(=O)c2ccc3c(c2)cc(Cc2ccccc2Br)n3C(C)C)cc1

half-life [5]: 708 min | concentration at 600 h [6]: 2020 ng/mL | clearance [7]: 0.954 mL/min/kg | half-life [8]: 672 min | Cmax [9]: 3660 ng/mL | AUC(0-t) [10]: 618 ng·h/mL | half-life [11]: 528 min | Vd [13]: 0.637 L/kg | AUC(0-t) [14]: 50600 ng·h/mL | Vd [15]: 3.65 L/kg | Vd [17]: 0.873 L/kg | AUC(0-t) [18]: 29100 ng·h/mL | half-life [19]: 160 min | Cmax [21]: 55.7 ng/mL | t1/2 [23]: 5.04 h | concentration at 600 h [25]: 9120 ng/mL | Cmax [26]: 2080 ng/mL | AUC(0-t) [28]: 79800 ng·h/mL | Vd [29]: 0.654 L/kg | bioavailability [30]: 31.7% | AUC(0-t) [31]: 1050 ng·h/mL | bioavailability [32]: 29.4% | AUC(0-t) [33]: 8640 ng·h/mL | bioavailability [35]: 84.2% | concentration at 600 h [37]: 2320 ng/mL | half-life [38]: 358 min | Vd [39]: 0.877 L/kg | Vd [40]: 25.7 L/kg | clearance [41]: 16.2 mL/min/kg | concentration at 600 h [42]: 10800 ng/mL
SMILES: CCS(=O)(=O)c1ccc([C@H](CO)NC(=O)c2ccc3c(c2)cc(Cc2ccc(Cl)cc2C(F)(F)F)n3CCF)cc1
Activity [12]: 36 pg/mL | Activity [16]: 1217 pg/mL | Activity [20]: 2455 pg/mL | inhibition in vivo at 10 mg/kg (MC-38 [22]): 62% | Activity (Mus musculus [24]): Non-Toxic | Activity (Mus musculus [27]): Non-Toxic | inhibition in vivo at 10 mg/kg (MC-38 [34]): 37% | Activity [36]: 81 pg/mL

EC50 [43]: 44 nM
SMILES: CCS(=O)(=O)c1ccc(CNC(=O)c2ccc3c(c2)cc(Cc2ccccc2C)n3C(C)C)cc1

— ChEMBL document CHEMBL5053528, “Discovery of 2-(Ortho-Substituted Benzyl)-Indole Derivatives as Potent and Orally Bioavailable RORγ Agonists with Antitumor Activity” (J Med Chem, 2021)
